ChEMBL document CHEMBL1255272, “In vitro activity of AR-709 against Streptococcus pneumoniae” (2008)
In brackets after ≈: the same amount, converted by molar mass.

Key:
Type in all cases: functional
Streptococcus pneumoniae [1] = assay: Antibacterial activity against multidrug resistant Streptococcus pneumoniae by microdilution method
Streptococcus pneumoniae [2] = assay: Antibacterial activity against penicillin resistant Streptococcus pneumoniae by microdilution method
Streptococcus pneumoniae [3] = assay: Antibacterial activity against cotrimoxazole resistant Streptococcus pneumoniae by microdilution method
Streptococcus pneumoniae [4] = assay: Antibacterial activity against azithromycin resistant Streptococcus pneumoniae by microdilution method
Streptococcus pneumoniae [5] = assay: Antibacterial activity against penicillin intermediate Streptococcus pneumoniae by microdilution method
Streptococcus pneumoniae [6] = assay: Antibacterial activity against cotrimoxazole susceptible Streptococcus pneumoniae by microdilution method
Streptococcus pneumoniae [7] = assay: Antibacterial activity against Streptococcus pneumoniae ATCC 49619 by microdilution method
Streptococcus pneumoniae [8] = assay: Antibacterial activity against azithromycin susceptible Streptococcus pneumoniae by microdilution method
Streptococcus pneumoniae [9] = assay: Antibacterial activity against penicillin susceptible Streptococcus pneumoniae by microdilution method
Streptococcus pneumoniae [10] = assay: Antibacterial activity against amoxicillin-clavulanic acid susceptible Streptococcus pneumoniae by microdilution method
Streptococcus pneumoniae [11] = assay: Antibacterial activity against Streptococcus pneumoniae by microdilution method
Streptococcus pneumoniae [12] = assay: Antibacterial activity against cotrimoxazole intermediate Streptococcus pneumoniae by microdilution method
Streptococcus pneumoniae [13] = assay: Antibacterial activity against amoxicillin-clavulanic acid resistant Streptococcus pneumoniae by microdilution method
Streptococcus pneumoniae [14] = assay: Antibacterial activity against Streptococcus pneumoniae assessed as susceptible isolates by microdilution method in presence of beta lactamase inhibitor clavulanic acid
Streptococcus pneumoniae [15] = assay: Antibacterial activity against Streptococcus pneumoniae assessed as resistant isolates by microdilution method
Streptococcus pneumoniae [16] = assay: Antibacterial activity against Streptococcus pneumoniae assessed as resistant isolates by microdilution method in presence of beta lactamase inhibitor clavulanic acid
Streptococcus pneumoniae [17] = assay: Antibacterial activity against Streptococcus pneumoniae by microdilution method in presence of beta lactamase inhibitor clavulanic acid
Streptococcus pneumoniae [18] = assay: Antibacterial activity against Streptococcus pneumoniae assessed as susceptible isolates by microdilution method

COc1cc(Cc2cnc(N)nc2N)c2cc(Cc3c(C(=O)N(C)C)[nH]c4ccc(Cl)cc34)oc2c1OC
MIC50 (Streptococcus pneumoniae [1]): 0.12 µg/mL (≈ 0.224 µM)
MIC90 (Streptococcus pneumoniae [1]): 0.25 µg/mL (≈ 0.467 µM)
MIC50 (Streptococcus pneumoniae [2]): 0.06 µg/mL (≈ 0.112 µM)
MIC90 (Streptococcus pneumoniae [2]): 0.25 µg/mL (≈ 0.467 µM)
MIC50 (Streptococcus pneumoniae [3]): 0.12 µg/mL (≈ 0.224 µM)
MIC90 (Streptococcus pneumoniae [3]): 0.25 µg/mL (≈ 0.467 µM)
MIC50 (Streptococcus pneumoniae [4]): 0.06 µg/mL (≈ 0.112 µM)
MIC90 (Streptococcus pneumoniae [4]): 0.25 µg/mL (≈ 0.467 µM)
MIC50 (Streptococcus pneumoniae [5]): 0.03 µg/mL (≈ 0.0561 µM)
MIC90 (Streptococcus pneumoniae [5]): 0.12 µg/mL (≈ 0.224 µM)
MIC50 (Streptococcus pneumoniae [6]): ≤ 0.015 µg/mL
MIC90 (Streptococcus pneumoniae [6]): 0.03 µg/mL (≈ 0.0561 µM)
MIC (Streptococcus pneumoniae [7]): ≤ 0.015 µg/mL
MIC50 (Streptococcus pneumoniae [8]): ≤ 0.015 µg/mL
MIC90 (Streptococcus pneumoniae [8]): 0.12 µg/mL (≈ 0.224 µM)
MIC50 (Streptococcus pneumoniae [9]): ≤ 0.015 µg/mL
MIC90 (Streptococcus pneumoniae [9]): ≤ 0.015 µg/mL
MIC50 (Streptococcus pneumoniae [10]): ≤ 0.015 µg/mL
MIC90 (Streptococcus pneumoniae [10]): 0.06 µg/mL
MIC50 (Streptococcus pneumoniae [11]): 0.03 µg/mL (≈ 0.0561 µM)
MIC90 (Streptococcus pneumoniae [11]): 0.25 µg/mL (≈ 0.467 µM)
MIC50 (Streptococcus pneumoniae [12]): ≤ 0.015 µg/mL
MIC90 (Streptococcus pneumoniae [12]): 0.06 µg/mL (≈ 0.112 µM)
MIC50 (Streptococcus pneumoniae [13]): 0.06 µg/mL
MIC90 (Streptococcus pneumoniae [13]): 0.25 µg/mL

CC1(C)S[C@@H]2[C@H](NC(=O)[C@H](N)c3ccc(O)cc3)C(=O)N2[C@H]1C(=O)O [AMOXICILLIN]
Activity (Streptococcus pneumoniae [14]): 55%
Activity (Streptococcus pneumoniae [15]): 39.7%
Activity (Streptococcus pneumoniae [16]): 39.1%
MIC50 (Streptococcus pneumoniae [17]): 0.25 µg/mL
MIC90 (Streptococcus pneumoniae [17]): 4 µg/mL
Activity (Streptococcus pneumoniae [18]): 55%
MIC50 (Streptococcus pneumoniae [11]): 0.25 µg/mL (≈ 0.684 µM)
MIC90 (Streptococcus pneumoniae [11]): 4 µg/mL (≈ 10.9 µM)

CC[C@H]1OC(=O)[C@H](C)[C@@H](O[C@H]2C[C@@](C)(OC)[C@@H](O)[C@H](C)O2)[C@H](C)[C@@H](O[C@@H]2O[C@H](C)C[C@H](N(C)C)[C@H]2O)[C@](C)(O)C[C@@H](C)CN(C)[C@H](C)[C@@H](O)[C@]1(C)O [AZITHROMYCIN]
Activity (Streptococcus pneumoniae [15]): 37.7%
Activity (Streptococcus pneumoniae [18]): 62.3%
MIC50 (Streptococcus pneumoniae [11]): 0.12 µg/mL (≈ 0.16 µM)
MIC90 (Streptococcus pneumoniae [11]): > 8 µg/mL

COc1c(N2CCNC(C)C2)c(F)cc2c(=O)c(C(=O)O)cn(C3CC3)c12 (stereo not given) [GATIFLOXACIN]
Activity (Streptococcus pneumoniae [15]): 0.7%
Activity (Streptococcus pneumoniae [18]): 98.7%
MIC50 (Streptococcus pneumoniae [11]): 0.25 µg/mL (≈ 0.666 µM)
MIC90 (Streptococcus pneumoniae [11]): 0.25 µg/mL (≈ 0.666 µM)

CC1(C)S[C@@H]2[C@H](NC(=O)Cc3ccccc3)C(=O)N2[C@H]1C(=O)O [PENICILLIN G]
Activity (Streptococcus pneumoniae [15]): 38.4%
Activity (Streptococcus pneumoniae [18]): 41.7%
MIC50 (Streptococcus pneumoniae [11]): 0.25 µg/mL (≈ 0.748 µM)
MIC90 (Streptococcus pneumoniae [11]): 2 µg/mL (≈ 5.98 µM)

CC[C@H]1OC(=O)[C@H](C)C(=O)[C@H](C)[C@@H](O[C@@H]2O[C@H](C)C[C@H](N(C)C)[C@H]2O)[C@](C)(OC)C[C@@H](C)C(=O)[C@H](C)[C@H]2N(CCCCn3cnc(-c4cccnc4)c3)C(=O)O[C@]12C [TELITHROMYCIN]
Activity (Streptococcus pneumoniae [15]): 0.7%
Activity (Streptococcus pneumoniae [18]): 98%
MIC90 (Streptococcus pneumoniae [11]): 0.5 µg/mL (≈ 0.616 µM)

COc1cc(Cc2cnc(N)nc2N)cc(OC)c1OC [TRIMETHOPRIM]
MIC50 (Streptococcus pneumoniae [11]): 4 µg/mL (≈ 13.8 µM)
MIC90 (Streptococcus pneumoniae [11]): > 32 µg/mL
